Experimental data reported in PMC11078216, “Discovery of potent and selective activity-based probes (ABPs) for the deubiquitinating enzyme USP30” (RSC Chemical Biology, 2024).

Target: T1, RTN3 (Homo sapiens, UniProt O95197)
T1 construct: endogenous in cells; host or cells: HEK293T
T1 sequence (O95197 1-1032): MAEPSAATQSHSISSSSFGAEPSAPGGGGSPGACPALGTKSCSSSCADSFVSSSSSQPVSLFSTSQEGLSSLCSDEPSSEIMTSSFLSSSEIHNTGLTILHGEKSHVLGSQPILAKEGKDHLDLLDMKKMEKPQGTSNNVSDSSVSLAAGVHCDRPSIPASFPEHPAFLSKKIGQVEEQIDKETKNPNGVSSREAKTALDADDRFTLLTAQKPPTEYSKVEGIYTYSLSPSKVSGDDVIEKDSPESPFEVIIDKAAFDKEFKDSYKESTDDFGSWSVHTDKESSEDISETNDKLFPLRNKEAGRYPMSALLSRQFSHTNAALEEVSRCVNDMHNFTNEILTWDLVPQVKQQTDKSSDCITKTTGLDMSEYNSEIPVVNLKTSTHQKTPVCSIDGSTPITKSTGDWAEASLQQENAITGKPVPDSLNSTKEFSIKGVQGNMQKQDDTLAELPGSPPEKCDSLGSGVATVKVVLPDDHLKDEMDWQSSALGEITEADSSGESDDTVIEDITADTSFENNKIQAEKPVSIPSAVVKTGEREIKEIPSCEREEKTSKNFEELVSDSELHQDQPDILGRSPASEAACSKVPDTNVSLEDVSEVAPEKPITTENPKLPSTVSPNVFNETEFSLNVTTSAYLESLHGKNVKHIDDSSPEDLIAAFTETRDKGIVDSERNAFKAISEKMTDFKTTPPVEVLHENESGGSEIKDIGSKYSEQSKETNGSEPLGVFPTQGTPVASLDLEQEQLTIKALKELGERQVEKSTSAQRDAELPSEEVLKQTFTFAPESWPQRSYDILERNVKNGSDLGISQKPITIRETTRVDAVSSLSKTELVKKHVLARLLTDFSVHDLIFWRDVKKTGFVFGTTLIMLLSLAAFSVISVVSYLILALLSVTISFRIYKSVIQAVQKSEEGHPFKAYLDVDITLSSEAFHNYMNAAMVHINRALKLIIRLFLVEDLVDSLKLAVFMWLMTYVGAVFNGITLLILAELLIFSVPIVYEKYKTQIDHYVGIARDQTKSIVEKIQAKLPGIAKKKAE
Test: ABPP chemical proteomics (LC-MS/MS) in HEK293T cells
Assay type: cell-based
Description: To explore the selectivity of IMP-2587 and IMP-2586 across the whole proteome, we performed quantitative activity-based protein profiling (ABPP) in HEK293T cells following treatment with IMP-2587 or IMP-2586 (Fig. 3a). After ABP incubation, cells were lysed, and probe-labelled proteins were ligated to biotinylated capture reagents.[27] […] USP30 was outcompeted by corresponding parent inhibitors for each ABP (Fig. 5b and d and Tables S3 and S5, ESI ^†), confirming the high potency and rapid engagement of IMP-2587 and IMP-2586 in cells. […] DESI1 and DESI2 are small ubiquitin-related modifier (SUMO) proteases,[3,29–32] and IMP-2587 and IMP-2586 may offer a starting point for future development of DESI ABPs. […]
d) Live cell probe incubation, lysate click chemistry and precipitation 6-well HEK293T cells were incubated with media containing compounds ABP 2 and ABP 4 at indicated concentrations for 1 h at 37 °C. The cells were washed with PBS and lysed with lysis buffer (50 μL (1% (v/v) Triton X-100, 0.1% (w/v) sodium dodecyl sulfate (SDS), EDTA-free complete protease inhibitor cocktail (1×, Roche) in PBS on ice for 10 min. The lysates were scraped and transferred to corresponding Lo-Bind Eppendorfs. Each lysate was sonicated for 1 minute, and the samples centrifuges at 5,000 x g at 4 °C for 5 minutes to pellet insoluble cellular debris. The supernatant was collected, and protein concentration was determined using the DC Protein Assay (Bio-Rad) as per manufacturer’s instructions, and normalised to lowest concentrated sample (e.g. 1 mg/mL, using lysis buffer). The following “click mixture” was prepared separately, preparing 6 μL for every 100 μL of […]
Capture reagent (AzRB/AzT for ABP 2, YnT/YnB for ABP 4 10 mM in DMSO, 1 vol; final concentration […]
CuSO4 (50 mM in water, 2 vol; final concentration in reaction 1 mM)
TCEP (50 mM in water, 2 vol; final concentration in reaction 1 mM)
TBTA (10 mM in DMSO, 1 vol; final concentration in reaction 100 µM)
The click mixture was vortexed and incubated at room temperature for 2 min before 6 μL of the mixture was added to every 100 μL of lysate. The reaction mixtures were shaken at room temperature for 1 h before being quenched with EDTA (500 mM in H2O) to a final concentration of 10 mM.
Proteins were precipitated by adding H2O (1 vol), MeOH (2 vol) and CHCl3 (0.5 vol), vortexing briefly then centrifuging at 17,000 × g for 5 min. The top H2O/MeOH layer was discarded and the middle layer of protein pellet and lower CHCl3 layer retained. The suspension was washed with MeOH (300 μL), and sonicated to break up the pellet. The proteins were pelleted by centrifugation at 10,000–17000 × g for 5–10 min or until a compact pellet was formed. The protein pellet was washed once more with MeOH (1 mL). The pellet was resuspended by sonicating and completely dissolving in 1% (w/v) SDS in PBS (to 5 mg/mL protein) before being made up to 1 mg/mL protein with PBS. […]
f) Neutravidin biotin enrichment (Affinity pull-down)
Click chemistry and precipitation steps were carried out as described in section 3.2.d, on at least 400ug of protein per sample. The pellet was resuspended by sonicating and completely dissolving in 1% (w/v) SDS in HEPES 50 mM pH 8.0, before being made up to 1 mg/mL protein with HEPES 50 mM pH 8.0 to […]
achieve a final concentration of 0.2% SDS. 20uL of each samples was collected as TL (Total lysate) samples. Pull down of biotinylated proteins was achieved by incubating samples with pre-equilibrated (3x 1 mL washes with 0.2% (w/v) SDS in HEPES 50 mM pH 8 buffer) Pierce™ NeutrAvidin™ Agarose beads for 3 hours at room temperature. NeutrAvidin™ Agarose beads were used in ratio of 1 μL bead resin per 10ug of protein sample. The beads were subsequently washed by moderate shaking for 10 seconds then briefly pelleting by table-top centrifuge then vacuum aspirating the supernatant with fine-end pipette tips (to not disturb the agarose) after collecting 20 µL supernatant as SN (supernatant […]
) samples. […]

`N#CN1CC[C@@H](NC(=O)c2cc(-c3ccccc3Oc3ccc(N=[N+]=[N-])cc3)n[nH]2)C1` [IMP-2586] was tested, and the “Difference (log2 fold change of enrichment)” value (IMP-2586 labelling vs DMSO, 30 nM, 10 min, HEK293T (Table S4, Fig.5c)) was 0.91.
For `C#Cc1cccc(-c2cc(NC(=O)CC3CCN(C#N)C3)on2)c1` (stereo not shown) [IMP-2587], the “Difference (log2 fold change of enrichment)” value (IMP-2587 labelling vs DMSO, 30 nM, 10 min, HEK293T (Table S2, Fig.5a)) was 1.07.
`N#CN1CC[C@H](CC(=O)Nc2cc(-c3cccc(Cl)c3)no2)C1` [compound 1, reference compound] was tested, and the “Difference (log2 fold change of enrichment)” value (compound 1 out-competition with IMP-2587 labelling, HEK293T (Table S3, Fig.5b)) was -0.64.
With `N#CN1CC[C@@H](NC(=O)c2cc(-c3ccccc3Oc3ccccc3)n[nH]2)C1` [compound 3, reference compound] the “Difference (log2 fold change of enrichment)” value (compound 3 out-competition with IMP-2586 labelling, HEK293T (Table S5, Fig.5d)) was -0.42.
